This data set can be described thus: gradient 5% acetonitrile 3 min, to 50% in 2 min, to 85% in 15 min, held 3 min, 100 µL/min. The following applies: column: Zorbax Extend-C18 2.1 x 50 mm; eluents: water / acetonitrile, 0.1% formic acid. The gist of the method:
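Pure standards were run in mixtures of ~100 molecules by HPLC coupled to a quadrupole time-of-flight mass spectrometer. The column was a Zorbax Extend-C18 (2.1 × 50 mm, 1.8 μm) at 100 μL/min, with water and acetonitrile each containing 0.1% formic acid, in positive and negative ionization mode. Dead and dwell volumes were 40 μL and 900 μL. Retention time was taken from computationally picked adduct peaks, each manually inspected, with data collected over 3 months.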
`CC(C)c1cc(C(=O)Nc2cccc(Cl)c2)nc2ccnn12` yielded an RP-LC retention time of 1230 s.

On to `CN(C1CCOCC1)C1CCN(C(=O)CCc2nc3ccccc3[nH]2)CC1`, for which the RP-LC retention time amounted to 519 s.

As for `Cc1nc(N2CCOCC2)c2c(C(=O)Nc3ccccc3)c(C)oc2n1`, the RP-LC retention time stood at 778 s.

The compound `CCCn1cc(-c2nc(-c3ccccn3)no2)c(=O)c2cc(F)ccc21` returned an RP-LC retention time of 761 s.

For the compound `Cc1cc(OCC(=O)NCCN(C)C)cc(C)c1Cl`, the RP-LC retention time turned out to be 629 s.

Compound `Cc1nn(C)cc1CN(C)C(=O)CCC1CCCN(c2cc(NC3CC3)ncn2)C1` (stereo not given) had an RP-LC retention time of 597 s.

On to `COc1ccc(NC(=O)N2CCN(c3ccc(=O)n(-c4ccc(C)cc4)n3)CC2)c(OC)c1`, for which the RP-LC retention time was 804 s.

In the case of `O=C(Nc1ccc(Br)cc1F)C1CCN(C(=O)c2cc(-c3cccnc3)n[nH]2)CC1`, the RP-LC retention time amounted to 676 s.

For `CN(C)C[C@@H]1CN(c2ncccn2)C[C@H]1NC(=O)c1ccc2ncccc2c1`, the RP-LC retention time was determined as 557 s.

Compound `CCn1c(=O)c2ccccc2n(CC(=O)N2CCC(C(N)=O)CC2)c1=O` registered an RP-LC retention time of 601 s.

The compound `CCc1nc2cc(-c3noc(-c4cccnc4SC)n3)ccc2o1` came in with an RP-LC retention time of 1220 s.

`Cc1cccc(N2CCN(C(=S)Nc3ccc4nc(N5CCN(C)CC5)cc(C)c4c3)CC2)c1C`: the RP-LC retention time worked out at 655 s.

`O=C(C1CCN(c2cnc3nccnc3c2)CC1)N1CCN(c2ccc(F)cc2)CC1` registered an RP-LC retention time of 723 s.

`O=C(c1ccc(F)c(Cl)c1)N(CC1CCOC1)C1CC1` (stereo not given): the RP-LC retention time turned out to be 824 s.

`COCCOC1CCC12CCN(C(=O)c1ocnc1C)CC2` (stereo not given) displayed an RP-LC retention time of 686 s.

Regarding `Cc1cc(-c2nnc(C3CCC3)o2)c(C)n1CC(=O)NCc1ccccc1F`, the RP-LC retention time was found to be 858 s.

`COc1ccc(C(=O)N(Cc2cc(OC)c(OC)c(OC)c2)CC2CCCO2)cc1` (stereo not given): the RP-LC retention time was 810 s.

`CCNc1cc(N2CCCC(CCC(=O)NC(C)C)C2)ncn1` (stereo not given) had an RP-LC retention time of 601 s.

In the case of `COc1ccc(-c2cc3n(n2)CCCN(C(=O)c2cccnc2SC)C3)cc1`, the RP-LC retention time is 788 s.

`O=C(c1ccc(Cl)s1)N1CCN(c2ncnc3c2CCC3)CC1` showed an RP-LC retention time of 638 s.

In turn, `COC(=O)C1=CN(c2ccccc2C)c2cc(F)ccc2S1(=O)=O` displayed an RP-LC retention time of 832 s.

`O=C(NCc1ccco1)c1ccc2c(c1)N(C(=O)c1ccc(F)cc1)CC2` displayed an RP-LC retention time of 823 s.

`COc1ccc(C(=O)NC2CCN(c3cc(-c4ccc(Cl)cc4)[nH]n3)C2)cn1` (stereo not given) came in with an RP-LC retention time of 732 s.

In turn, `O=C(NCCc1csc(-c2ccccc2)n1)C1CCN(S(=O)(=O)c2ccc(Cl)s2)CC1` showed an RP-LC retention time of 1010 s.

Turning to `CC(C)CNC(=O)CN1CCN(Cc2ccccc2)C1=O`, the RP-LC retention time turned out to be 717 s.

For `O=C(CC1CCN(C(=O)c2ccccc2)CC1)N1CCN(c2ccccn2)CC1`, the RP-LC retention time was determined as 582 s.

Compound `COc1ncc(C(=O)NCc2ccccc2F)cn1` displayed an RP-LC retention time of 680 s.

`CC(C)(C)c1cnc(CSc2cnc(NC(=O)C3CCNCC3)s2)o1`: the RP-LC retention time was 677 s.

In turn, `Cc1ccc(-c2noc(-c3ccc(N4CCN(C5CCCCC5)CC4)nc3)n2)cc1` came in with an RP-LC retention time of 848 s.

As to `Cc1ccc(C(C)NC(=O)c2cn3c(n2)COCC3)c(C)c1` (stereo not given), the RP-LC retention time was determined as 667 s.

As to `CCOC(=O)c1c(S(=O)(=O)N2CCC(C(=O)N3CCCC3)CC2)c(C)n(C)c1C`, the RP-LC retention time is 706 s.

In turn, `Cc1cc(-c2cc(S(=O)(=O)NCC(C)c3ccccc3)c(C)s2)n[nH]1` (stereo not given) came in with an RP-LC retention time of 890 s.

In the case of `O=C(c1ccc(F)cc1)N1CCC2(CC1)OCC(C(=O)N1CCOCC1)N2C(=O)c1cccc(F)c1` (stereo not given), the RP-LC retention time amounted to 679 s.

Regarding `COc1ccc(Nc2c(-c3ccc(SC)cc3)nc3cnccn23)cc1`, the RP-LC retention time came to 908 s.

As to `O=C(NCCCN1CCCC1=O)c1nc2ccccn2c1-c1ccc(Cl)cc1`, the RP-LC retention time is 690 s.

With `CCSC(=O)N1c2ccc(OC)cc2C=CC1C#N` (stereo not given), the RP-LC retention time came out at 911 s.

Regarding `Cc1ccc(C)c(N2CCN(S(=O)(=O)c3c(C)sc(C)c3-c3cc(C)[nH]n3)CC2)c1`, the RP-LC retention time worked out at 1150 s.

Turning to `Cc1cc(C)n(CC(=O)N2CCCCCCNC(=O)[C@@H]3CCCC[C@@H]32)n1`, the RP-LC retention time was 715 s.

Consider `Cc1ccsc1C(=O)N1CCC(n2cnnc2-c2ccccc2)C1` (stereo not given), for which the RP-LC retention time is 662 s.

`Cc1ccc(Cn2c(N3CCCC(C(=O)NCCc4cccs4)C3)nc3ccsc3c2=O)cc1` (stereo not given) gave an RP-LC retention time of 1000 s.

`CCCCOc1ccc(C(=O)N2CCNC(=O)C2CC(=O)OC2CCCCC2)cc1` (stereo not given) gave an RP-LC retention time of 1000 s.

`COc1ccc(C2NC(=O)NC(C)=C2C(=O)OCCc2ccccc2)c(OC)c1` (stereo not given) showed an RP-LC retention time of 957 s.

In the case of `CCN1c2ccc(C)cc2C(=O)NC12CCN(C(=O)c1ccc(Br)cc1)CC2`, the RP-LC retention time was 902 s.

Compound `CN(CC1CCOCC1)S(=O)(=O)c1ccccc1C(F)(F)F` gave an RP-LC retention time of 861 s.

Turning to `Cc1ccc(C)c(N2CCN(c3ccnc(SCC(=O)Nc4ccc(F)cc4)n3)CC2)c1`, the RP-LC retention time was 891 s.

In turn, `CCc1ccc(NC(=O)N2CCC(CN3CCCC(C)C3)CC2)cc1` (stereo not given) displayed an RP-LC retention time of 662 s.

`Cn1c(=O)n(C)c2cc(CNc3cc(C(=O)O)ccc3Cl)ccc21` returned an RP-LC retention time of 738 s.

Compound `CN(C)C[C@@H]1CN(C2CCOCC2)C[C@H]1NC(=O)C1(c2ccccc2)CC1` gave an RP-LC retention time of 556 s.

The compound `Cc1oc2nc3c(c(NC(=O)CN4CCCC4=O)c2c1C)CCCC3` displayed an RP-LC retention time of 687 s.

As to `Cc1cccc(C2=NC3(CCN(C(=O)Nc4ccc5c(c4)OCO5)CC3)NC2=O)c1`, the RP-LC retention time was found to be 790 s.

For `CCCN(C(=O)Cc1c(C(=O)O)c(C)cn1CC)c1cccc(Cl)c1`, the RP-LC retention time is 767 s.

`Cc1noc(C)c1C1CCCN1C(=O)Nc1ccccc1C(F)(F)F` (stereo not given) yielded an RP-LC retention time of 879 s.

As for `CC1CCCN(c2nc(=O)n(CC(=O)Nc3ccc(F)cc3)c3ccccc23)C1` (stereo not given), the RP-LC retention time is 841 s.

Consider `Fc1ccc(-c2ccc(CNCCCn3ccnc3)o2)cc1Cl`, for which the RP-LC retention time is 585 s.

In turn, `CC(C)N1CCN(c2cc(-c3nc(-c4cccc(F)c4)no3)c3ccccc3n2)CC1` returned an RP-LC retention time of 890 s.

In the case of `CCOc1ccc(NC(=O)CN2C(=O)C3CCCCN3c3ccc(S(=O)(=O)N(C)C)cc32)cc1` (stereo not given), the RP-LC retention time is 945 s.

`O=C(CSc1nnc2c(=O)n(-c3ccccc3)ccn12)c1ccc(Br)cc1` yielded an RP-LC retention time of 881 s.

In the case of `CN(C)C(=O)c1csc(S(=O)(=O)N2CCC(C(=O)NC3CCCC3)CC2)c1`, the RP-LC retention time was found to be 696 s.

With `CCCCN1C(=O)CC(C(=O)OCC)=C1C`, the RP-LC retention time was found to be 892 s.

Turning to `O=S(=O)(c1ccc(-c2noc(-c3cccc(Cl)c3)n2)cc1)N1CCOCC1`, the RP-LC retention time amounted to 1170 s.

On to `COc1ccc(CNC(=O)Cn2nc3c4sc(N(C)C)nc4ncn3c2=O)cc1`, for which the RP-LC retention time was found to be 668 s.

Regarding `CCC(C)NC(=O)c1sc(-c2cn(C(C)C)c3ncccc23)nc1C` (stereo not given), the RP-LC retention time was found to be 931 s.

`CCc1nn2c(CNC(=O)c3cccc(Br)c3)c(C)nc2s1` gave an RP-LC retention time of 686 s.

`CN1CCN(c2cc(C(=O)O)c3cc(NS(=O)(=O)c4ccc(Cl)c(Cl)c4)ccc3n2)CC1`: the RP-LC retention time worked out at 644 s.

`CCc1ccc(OCc2nc(C)c(C(=O)Nc3nc(-c4ccccc4OC)cs3)s2)cc1` returned an RP-LC retention time of 1310 s.

For `O=C(c1ccc(-c2ccnc(N3CCCCC3)n2)cc1)N1CCC2(CC1)OCCO2`, the RP-LC retention time stood at 882 s.

On to `CCn1nc(C)n2cc(S(=O)(=O)NCc3ccc(F)c(Cl)c3)cc2c1=O`, for which the RP-LC retention time is 930 s.

As for `CC(C)N1CCCn2cc(S(=O)(=O)Nc3ccc(Oc4ccccc4)cc3)cc2C1=O`, the RP-LC retention time was determined as 909 s.

The compound `CN(C)C(=O)Oc1cc(OC(=O)N(C)C)cc(C(O)CNC(C)(C)C)c1` (stereo not given) registered an RP-LC retention time of 688 s.

On to `Cc1cc(C)cc(NC(=O)N2C[C@@H](F)C[C@H]2C(=O)N2CCc3ccccc3C2)c1`, for which the RP-LC retention time was 879 s.

In turn, `Cc1ccc(-c2cn3c(CC(=O)Nc4cccc(C#N)c4)csc3n2)cc1C` yielded an RP-LC retention time of 855 s.

With `O=C(Nc1cccc(-c2ccc3nnc(-c4cccs4)n3n2)c1)C1CCCC1`, the RP-LC retention time worked out at 792 s.

For the compound `Cc1ccccc1CC(=O)N1CCCC(COc2cccc(C(=O)NC3CC3)c2)C1` (stereo not given), the RP-LC retention time turned out to be 861 s.

For `Cc1cccc(C(=O)Nc2nc(-c3ccc4c(c3)NC(=O)C(C)O4)cs2)c1` (stereo not given), the RP-LC retention time was found to be 962 s.

For the compound `Cc1ccc(C)c(N2C(=O)CN(S(=O)(=O)c3ccccc3)CC2(C)C(=O)NC2CCCC2)c1` (stereo not given), the RP-LC retention time is 991 s.

The compound `COc1ccc(CNC2=NCCNC23CCN(S(=O)(=O)c2ccc(C)cc2C)CC3)cc1` registered an RP-LC retention time of 775 s.

`CCc1ccc(NC(=O)Cn2c(N3CCOCC3)nc(CC)cc2=O)cc1` registered an RP-LC retention time of 747 s.

Consider `CCN1CCN(c2ncc3c(n2)CCN(Cc2cccc(Br)c2)C3)CC1`, for which the RP-LC retention time was determined as 550 s.

The compound `COC(=O)COC(=O)c1cn(-c2cccc(F)c2)c(=O)c2ccccc12` returned an RP-LC retention time of 938 s.

Regarding `Cc1ccccc1NC(=O)c1cc(C)n2nc(-c3ccsc3)cc2n1`, the RP-LC retention time was found to be 1240 s.

For the origin of these results see the METLIN SMRT retention time set (Domingo-Almenara et al. 2019).
